Data as given in US20250230193A1, “CYCLIC COMPOUND HAVING SELECTIVE KRAS INHIBITORY EFFECT ON HRAS AND NRAS” (CHUGAI SEIYAKU KABUSHIKI KAISHA, priority 2022, published 2025).

Key:
[1] = target: GDP-bound HRAS wild-type protein (Homo sapiens, UniProt P01112); test: Binding to HRAS by surface plasmon resonance (SPR), Single Cycle Kinetics; settings: SPR; KD ratio class
[2] = test system: human lung cancer strain NCI-H441; test: cells; settings: NCI-H441, 96 h, read-out: NCI-H441 IC50 (nM)
[3] = target: GDP-bound NRAS wild-type protein (Homo sapiens, UniProt P01111); test: Binding to NRAS by surface plasmon resonance (SPR), Single Cycle Kinetics; settings: SPR; KD ratio class
Chain of GDP-bound NRAS wild-type protein (P01111 whole entry): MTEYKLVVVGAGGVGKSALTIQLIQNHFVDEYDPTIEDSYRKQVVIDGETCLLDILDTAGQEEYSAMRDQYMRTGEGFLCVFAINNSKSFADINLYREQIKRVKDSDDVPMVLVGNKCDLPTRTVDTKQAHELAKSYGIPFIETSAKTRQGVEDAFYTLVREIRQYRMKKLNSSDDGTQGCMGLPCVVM

Chain of GDP-bound HRAS wild-type protein (P01112 whole entry): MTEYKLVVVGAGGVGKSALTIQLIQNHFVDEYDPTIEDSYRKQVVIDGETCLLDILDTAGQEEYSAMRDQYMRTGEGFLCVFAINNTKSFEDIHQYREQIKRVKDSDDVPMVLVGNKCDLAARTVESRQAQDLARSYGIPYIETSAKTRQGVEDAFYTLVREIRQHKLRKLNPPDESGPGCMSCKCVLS

| Structure (SMILES) | HRAS/KRAS (ratio of KD value for GDP-bound HRAS wild-type protein to KD value for KRAS) [1] | IC50 [2] [nM] | NRAS/KRAS (ratio of KD value for GDP-bound NRAS wild-type protein to KD value for KRAS) [3] |
| --- | --- | --- | --- |
| CCCCCC[C@H]1C(=O)N[C@@H]([C@@H](C)CC)C(=O)N(C)CC(=O)N(C)[C@H]2C/C=C\CCN(C2=O)[C@@H](Cc2ccc(C(F)(F)F)cc2)C(=O)N(C)CC(=O)N[C@@H](CCc2ccc3sccc3c2)C(=O)N2C[C@H](OCC)C[C@H]2C(=O)NC2(CCC2)C(=O)N(C)[C@@H](C2CCCC2)C(=O)N(C)[C@H](C(=O)N(C)C)CC(=O)N1C [PP1259] | A (a compound having 10 or more and less than 20 is denoted as A) | 62 | A (a compound having 10 or more and less than 20 is denoted as A) |
| CCO[C@@H]1C[C@H]2C(=O)NC3(CCC3)C(=O)N(C)[C@@H](C3CCCC3)C(=O)N(C)[C@H](C(=O)N(C)C)CC(=O)N(C)[C@@H](CC3CC3)C(=O)N[C@@H]([C@@H](C)CC)C(=O)N(C)CC(=O)N(C)[C@H]3C/C=C\CCN(C3=O)[C@@H](Cc3ccc(C(F)(F)F)cc3)C(=O)N(C)CC(=O)N[C@@H](CCc3ccc4sccc4c3)C(=O)N2C1 [PP1260] | A (a compound having 10 or more and less than 20 is denoted as A) | 60.4 | A (a compound having 10 or more and less than 20 is denoted as A) |
| CCO[C@@H]1C[C@H]2C(=O)NC3(CCC3)C(=O)N(C)[C@@H](C3CCCC3)C(=O)N(C)[C@H](C(=O)N(C)C)CC(=O)N(C)[C@@H](CC)C(=O)N[C@@H]([C@@H](C)CC)C(=O)N(C)CC(=O)N(C)[C@H]3C/C=C\CCN(C3=O)[C@@H](Cc3ccc(C(F)(F)F)cc3)C(=O)N(C)CC(=O)N[C@@H](CCc3cc(F)c(Cl)c(F)c3)C(=O)N2C1 [PP1262] | B (a compound having 3 or more and less than 10 is denoted as B) | 56.7 | A (a compound having 10 or more and less than 20 is denoted as A) |
| CCO[C@@H]1C[C@H]2C(=O)NC3(CCC3)C(=O)N(C)[C@@H](C3CCCC3)C(=O)N(C)[C@H](C(=O)N(C)C)CC(=O)N(C)[C@@H](CC(C)C)C(=O)N[C@@H]([C@@H](C)CC)C(=O)N(C)CC(=O)N(C)[C@H]3C/C=C\CCN(C3=O)[C@@H](Cc3ccc(C(F)(F)F)cc3)C(=O)N(C)CC(=O)N[C@@H](CCc3cc(F)c(Cl)c(F)c3)C(=O)N2C1 [PP1263] | A (a compound having 10 or more and less than 20 is denoted as A) | 18.9 | A (a compound having 10 or more and less than 20 is denoted as A) |
| CCO[C@@H]1C[C@H]2C(=O)NC3(CCC3)C(=O)N(C)[C@@H](C3CCCC3)C(=O)N(C)[C@H](C(=O)N(C)C)CC(=O)N(C)[C@@H](CC3CCCC3)C(=O)N[C@@H]([C@@H](C)CC)C(=O)N(C)CC(=O)N(C)[C@H]3C/C=C\CCN(C3=O)[C@@H](Cc3ccc(C(F)(F)F)cc3)C(=O)N(C)CC(=O)N[C@@H](CCc3cc(F)c(Cl)c(F)c3)C(=O)N2C1 [PP1264] | B (a compound having 3 or more and less than 10 is denoted as B) | 15.9 | A (a compound having 10 or more and less than 20 is denoted as A) |
| CCO[C@@H]1C[C@H]2C(=O)NC3(CCC3)C(=O)N(C)[C@@H](C3CCCC3)C(=O)N(C)[C@H](C(=O)N(C)C)CC(=O)N(C)[C@@H](CC)C(=O)N[C@@H]([C@@H](C)CC)C(=O)N(C)CC(=O)N(C)[C@H]3C/C=C\CCN(C3=O)[C@@H](Cc3ccc(C(F)(F)F)cc3)C(=O)N(C)CC(=O)N[C@@H](CCc3ccc(C(F)(F)F)c(C)c3)C(=O)N2C1 [PP1265] | B (a compound having 3 or more and less than 10 is denoted as B) | 14.1 | A (a compound having 10 or more and less than 20 is denoted as A) |
| CCO[C@@H]1C[C@H]2C(=O)NC3(CCC3)C(=O)N(C)[C@@H](C3CCCC3)C(=O)N(C)[C@H](C(=O)N(C)C)CC(=O)N(C)[C@@H](CC)C(=O)N[C@@H](C(C)C)C(=O)N(C)CC(=O)N(C)[C@H]3C/C=C\CCN(C3=O)[C@@H](Cc3ccc(C(F)(F)F)cc3)C(=O)N(C)CC(=O)N[C@@H](CCc3cc(F)c(C(F)(F)F)c(F)c3)C(=O)N2C1 [PP1270] | B (a compound having 3 or more and less than 10 is denoted as B) | 53.5 | A (a compound having 10 or more and less than 20 is denoted as A) |
| CCO[C@@H]1C[C@H]2C(=O)NC3(CCCCC3)C(=O)N(C)[C@@H](C3CCCC3)C(=O)N(C)[C@H](C(=O)N(C)C)CC(=O)N(C)[C@@H](CC)C(=O)N[C@@H]([C@@H](C)CC)C(=O)N(C)CC(=O)N(C)[C@H]3C/C=C\CCN(C3=O)[C@@H](Cc3ccc(C(F)(F)F)cc3)C(=O)N(C)CC(=O)N[C@@H](CCc3cc(F)c(C(F)(F)F)c(F)c3)C(=O)N2C1 [PP1277] | A (a compound having 10 or more and less than 20 is denoted as A) | 79.8 | A (a compound having 10 or more and less than 20 is denoted as A) |
| CCO[C@@H]1C[C@H]2C(=O)NC3(CCOCC3)C(=O)N(C)[C@@H](C3CCCC3)C(=O)N(C)[C@H](C(=O)N(C)C)CC(=O)N(C)[C@@H](CC)C(=O)N[C@@H]([C@@H](C)CC)C(=O)N(C)CC(=O)N(C)[C@H]3C/C=C\CCN(C3=O)[C@@H](Cc3ccc(C(F)(F)F)cc3)C(=O)N(C)CC(=O)N[C@@H](CCc3cc(F)c(C(F)(F)F)c(F)c3)C(=O)N2C1 [PP1279] | A (a compound having 10 or more and less than 20 is denoted as A) | 72.6 | A (a compound having 10 or more and less than 20 is denoted as A) |
| CCO[C@@H]1C[C@H]2C(=O)NC(C)(C)C(=O)N(C)[C@@H](C3CCCC3)C(=O)N(C)[C@H](C(=O)N(C)C)CC(=O)N(C)[C@@H](CC)C(=O)N[C@@H]([C@@H](C)CC)C(=O)N(C)CC(=O)N(C)[C@H]3C/C=C\CCN(C3=O)[C@@H](Cc3ccc(C(F)(F)F)cc3)C(=O)N(C)CC(=O)N[C@@H](CCc3cc(F)c(C(F)(F)F)c(F)c3)C(=O)N2C1 [PP1280] | A (a compound having 10 or more and less than 20 is denoted as A) | 34.4 | A (a compound having 10 or more and less than 20 is denoted as A) |
| CCO[C@@H]1C[C@H]2C(=O)NC3(CCC3)C(=O)N(C)[C@@H](C3CCCC3)C(=O)N(C)[C@H](C(=O)N3CCOCC3)CC(=O)N(C)[C@@H](CC(C)C)C(=O)N[C@@H]([C@@H](C)CC)C(=O)N(C)CC(=O)N(C)[C@H]3C/C=C\CCN(C3=O)[C@@H](Cc3ccc(C(F)(F)F)cc3)C(=O)N(C)CC(=O)N[C@@H](CCc3cc(F)c(C(F)(F)F)c(F)c3)C(=O)N2C1 [PP1282] | A (a compound having 10 or more and less than 20 is denoted as A) | 12.3 | A (a compound having 10 or more and less than 20 is denoted as A) |
| CCO[C@@H]1C[C@H]2C(=O)NC3(CCC3)C(=O)N(C)[C@@H](C3CCCC3)C(=O)N(C)[C@H](C(=O)N3CCOCC3)CC(=O)N(C)[C@@H](CC3CC3)C(=O)N[C@@H]([C@@H](C)CC)C(=O)N(C)CC(=O)N(C)[C@H]3C/C=C\CCN(C3=O)[C@@H](Cc3ccc(C(F)(F)F)cc3)C(=O)N(C)CC(=O)N[C@@H](CCc3cc(F)c(C(F)(F)F)c(F)c3)C(=O)N2C1 [PP1283] | A (a compound having 10 or more and less than 20 is denoted as A) | 42.6 | AA (a compound having 20 or more is denoted as AA) |
| CCO[C@@H]1C[C@H]2C(=O)NC3(CCC3)C(=O)N(C)[C@@H](C3CCCC3)C(=O)N(C)[C@H](C(=O)N3CCOCC3)CC(=O)N(C)[C@@H](C)C(=O)N[C@@H]([C@@H](C)CC)C(=O)N(C)CC(=O)N(C)[C@H]3C/C=C\CCN(C3=O)[C@@H](Cc3ccc(C(F)(F)F)cc3)C(=O)N(C)CC(=O)N[C@@H](CCc3cc(F)c(C(F)(F)F)c(F)c3)C(=O)N2C1 [PP1284] | A (a compound having 10 or more and less than 20 is denoted as A) | 54.8 | AA (a compound having 20 or more is denoted as AA) |
| CCO[C@@H]1C[C@H]2C(=O)NC3(CCC3)C(=O)N(C)[C@@H](C3CCCC3)C(=O)N(C)[C@H](C(=O)N3CCOCC3)CC(=O)N(C)[C@@H](CC(F)F)C(=O)N[C@@H]([C@@H](C)CC)C(=O)N(C)CC(=O)N(C)[C@H]3C/C=C\CCN(C3=O)[C@@H](Cc3ccc(C(F)(F)F)cc3)C(=O)N(C)CC(=O)N[C@@H](CCc3cc(F)c(C(F)(F)F)c(F)c3)C(=O)N2C1 [PP1285] | A (a compound having 10 or more and less than 20 is denoted as A) | 24.6 | AA (a compound having 20 or more is denoted as AA) |
| CCO[C@@H]1C[C@H]2C(=O)NC3(CCC3)C(=O)N(C)[C@@H](C(CC)CC)C(=O)N(C)[C@H](C(=O)N3CCOCC3)CC(=O)N(C)[C@@H](CC)C(=O)N[C@@H]([C@@H](C)CC)C(=O)N(C)CC(=O)N(C)[C@H]3C/C=C\CCN(C3=O)[C@@H](Cc3ccc(C(F)(F)F)cc3)C(=O)N(C)CC(=O)N[C@@H](CCc3cc(F)c(C(F)(F)F)c(F)c3)C(=O)N2C1 [PP1286] | A (a compound having 10 or more and less than 20 is denoted as A) | 58.8 | AA (a compound having 20 or more is denoted as AA) |
